Measurements: ChEMBL document CHEMBL2169829, “Water mediated ligand functional group cooperativity: the contribution of a methyl group to binding affinity is enhanced by a COO(-) group through changes in the structure and thermodynamics of the hydration waters of ligand-thermolysin complexes” (J Med Chem, 2012)

These compounds were tested against T1, Thermolysin (Bacillus thermoproteolyticus, UniProt P00800) (assay: Binding affinity to Bacillus thermoproteolyticus thermolysin by UV-VIS spectrophotometric analysis in presence of 2-furanacryloyl-Gly-Leu-NH2).
T1 sequence (P00800 whole entry): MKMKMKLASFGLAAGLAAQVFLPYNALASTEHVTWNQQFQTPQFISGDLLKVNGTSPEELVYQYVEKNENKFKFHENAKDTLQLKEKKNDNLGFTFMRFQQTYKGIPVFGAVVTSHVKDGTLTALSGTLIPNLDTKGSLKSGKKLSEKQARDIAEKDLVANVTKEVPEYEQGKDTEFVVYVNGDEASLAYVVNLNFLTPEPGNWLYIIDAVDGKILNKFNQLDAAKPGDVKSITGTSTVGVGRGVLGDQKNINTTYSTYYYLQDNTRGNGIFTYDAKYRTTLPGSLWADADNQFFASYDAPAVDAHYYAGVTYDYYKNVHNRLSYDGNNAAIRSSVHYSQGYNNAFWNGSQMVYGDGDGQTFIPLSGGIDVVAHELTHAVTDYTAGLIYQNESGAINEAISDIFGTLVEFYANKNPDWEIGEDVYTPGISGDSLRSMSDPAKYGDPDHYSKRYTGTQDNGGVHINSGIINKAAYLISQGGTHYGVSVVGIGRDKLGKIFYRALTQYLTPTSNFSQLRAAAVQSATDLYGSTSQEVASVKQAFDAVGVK

Row | Compound | Ki [nM]
1 | CCNC(=O)[C@H](CC(C)C)NP(=O)(O)CNC(=O)OCc1ccccc1 | 289
2 | CNC(=O)[C@H](CC(C)C)NP(=O)(O)CNC(=O)OCc1ccccc1 | 902
3 | CC(C)C[C@H](NP(=O)(O)CNC(=O)OCc1ccccc1)C(=O)N[C@@H](C)C(=O)O | 19.1
4 | CC(C)C[C@H](NP(=O)(O)CNC(=O)OCc1ccccc1)C(=O)NCC(=O)O | 472
